Each block holds one compound with its values, some of them ahead of it.
Experiments:
[1] = system: BALB/c female mice; assay: Induction of anti-lipidic particles antibodies and pathology in immunized/treated mice; type: in vivo, mouse; settings: for pathology developed in BALB/c female mice: after immunization or treatment as in Examples 4A-4C; for immunized BALB/c female mice that produced anti-lipidic particles antibodies: intramuscular, chlorpromazine 3 mg/Kg or procainamide 10 mg/Kg each 24 hs for 2-months
Description: Ten, 2-months age, BALB/c female mice were immunized by intrasplenic injection of 100 μg of egg-yolk phosphatidylcholine:phosphatidate liposomes (2:1 molar ratio) in Tris-NaCl buffer (10 mM, 1 mM) pH 7, containing 0.1 μmol of phosphatidate, and treated with MnCl2 5 mM to induce lipidic particles formation. Intrasplenic immunization was repeated 2-weeks later by the method described by Nilsson et al. (op. cit. 1987). Additionally, BALB/c female mice were intraperitoneally injected with the same liposomes dose 2-weeks later, then they were boosted 4-times at 2-weeks intervals.
After seven days of the last immunization female mice were bled from the orbital sinus to analyze the presence of anti-lipidic particles antibodies in the obtained sera. Using this immunization procedure, 60% of the immunized BALB/c female mice produced anti-lipidic particles antibodies.
Ten, 2-months age, BALB/c female mice were immunized by intrasplenic injection of 100 μg of egg-yolk phosphatidylcholine:phosphatidate liposomes (2:1 molar ratio) in Tris-NaCl buffer (10 mM, 1 mM) pH 7, containing 0.1 μmol of phosphatidate, and treated with the lipidic particles inducer drug procainamide at a concentration of 8 mM. Immunization was carried out as it was indicated in Example 4. After seven days of the last immunization female mice were bled from the orbital sinus to analyze the presence of anti-lipidic particles antibodies in the obtained sera. Using this immunization procedure, 70% of the immunized BALB/c female mice produced anti-lipidic particles antibodies.
Ten, 2-months age, BALB/c female mice were immunized by intramuscular injection of the lipidic particles inducer drugs chlorpromazine or procainamide, using 3 mg/Kg, of body weight, for chlorpromazine and 10 mg/Kg, of body weight, for procainamide, each 24 hs, for 2-months. Drug doses were similar to those that are administered in the medical treatment of humans; in psychotic and maniacs dysfunctions for chlorpromazine and those that were used for the treatment of cardiac arrhythmias for procainamide.
After seven days of the last intramuscular injection female mice were bled from the orbital sinus to analyze the presence of anti-lipidic particles antibodies in the obtained sera. Using this immunization procedure, 50% of the immunized BALB/c female mice produced anti-lipidic particles antibodies.
Ten, 2-months age, BALB/c female mice were immunized by intraperitoneal injection of 1 μg of anti-lipidic particles H308 monoclonal antibody, each week, for 2-months. After seven days of the last intraperitoneal injection female mice were bled from the orbital sinus to analyze the presence of anti-lipidic particles antibodies in the obtained sera. […]

[2] = system: H308 monoclonal antibody; assay: Inhibition of H308 monoclonal antibody by phosphorylated haptens (liposomal-ELISA); type: binding, mouse; settings: for inhibition of H308 monoclonal antibody reaction with lipidic particles in liposomes: hapten 0.2 to 1.0 μmol
Description: Studies on inhibition of anti-lipidic particles antibodies were carried out using liposomes as antigens and the antigen-antibody reaction was analyzed by the liposomal-ELISA method, which includes the following steps:
A) A first step of addition and incubation, in which an effective quantity of an antigen suspension is added to each one of the wells of the ELISA microtiter plate. This microtiter plate is selected among those with a high lipidic antigens binding property and said microtiter plate is incubated between 25 to 30° C. for 0.25 to 2 h.
B) A second step of addition and incubation, in which an effective quantity of a blocking solution is added to each one of the wells of the ELISA microtiter plate with a high lipidic antigens binding property, and said microtiter plate being incubated at a temperature between 25 to 30° C. for 0.25 to 2 h.
C) A step of elimination of blocking solution, preferably by suction, avoiding that microtiter plate becomes dry when blocking solution is eliminated, because liposomal antigens can be damaged.
D) A step of inhibition of the antibody porter, in which the antibody porter is incubated with a chemical substance, or hapten, that will inhibit the active site that recognizes the antigen in the antibody porter.
E) A third step of addition and incubation, in which an effective quantity of the antibody porter inhibited by the hapten was quickly added, to avoid that microtiter plate becomes dry, to each one of the wells using an antibody porter dilution from 1:5 to 1:1000 into blocking solution. This microtiter plate being incubated for 0.25 to 2 h at a temperature between 25 to 30° C.
F) A first step of washing, in which the microtiter plate is washed with the blocking solution, preferably repeating 4-times and avoiding that microtiter plate becomes dry when eliminating the blocking solution.
G) A fourth step of addition and incubation, in which an effective quantity of a second antibody is added to each one of the wells of microtiter plate. This plate is incubated in the darkness for 0.25 to 2 h at a temperature between 25 to 30° C. Second antibody is selected preferably among antibodies from a different specie to that of the antibody porter and they can be anti-Fc of human IgG, IgA and IgM or of the animal in study, or antibodies anti-Fc of IgM or of IgG depending on the nature of the monoclonal antibody when this is the antibody porter. Second antibody is used in a final dilution into blocking solution between […] and 1:3500 and it is conjugated to an enzyme preferably to peroxidase.
H) A second step of washing, in which the microtiter plate is washed with the blocking solution, preferably repeating 4-times and avoiding that microtiter plate becomes dry when eliminating the blocking solution.
I) A fifth step of addition and incubation, in which an effective quantity of the peroxidase sustrates is added to each one of the wells and this microtiter plate is incubated for 0.1 to 0.5 h at a temperature between .35 and 40° C., stopping the peroxidase reaction by adding an effective quantity of sulfuric acid.
J) A step of analysis, in which microtiter plate is analyzed using a reading device for ELISA plates, preferably at 492 nm.
In a specific embodiment, the hapten solution is obtained dissolving hapten in a buffer solution at pH between 7.0 and 7.4, in a relationship from 0.1 to 10 mmoles of hapten per liter of buffer solution.
Costar microtiter plates, with 96 flat-bottom wells with a high lipidic antigens binding property (Costar Co. Cambrige, USA) were coated by the addition to each one of the wells of 100 μl of liposomes made from egg-yolk phosphatidylcholine:phosphatidate (2:1 molar ratio) in Tris-NaCl buffer (10 mM, 1 mM) pH 7, containing 0.1 μmol of phosphatidate, and treated with 5 mM CaCl2 to induce lipidic particles formation. Microtiter plates were incubated at room temperature for 1 h and they were blocked for 1 h at room temperature in a similar way as was described in Example 1. […]

[3] = system: egg-yolk phosphatidylcholine:phosphatidate (2:1 molar ratio) liposomes; assay: Stabilization of liposomal membranes (liposomal cytofluorometry, SSC/FSC); settings: for concentration effective in stabilizing lipidic bilayers: blocks lipidic particles induced by chlorpromazine at 0.2 mM and 0.6 mM; for lipidic particles formation and liposomal aggregation, simultaneous incubation with chlorpromazine: liposomes incubated simultaneously with chlorpromazine and stabilizer drug; for reaction of stabilized liposomes with H308 monoclonal antibody: liposomes incubated with chlorpromazine and stabilizer drug
Description: In relation to the stabilization of membranes with drugs that avoid the formation of lipidic particles in liposomal model membranes or in cellular membranes, which in turn avoid the subsequent union of anti-lipidic particles antibodies, the studies were carried out with liposomal or cellular antigens using the cytofluorometry method. In a favorite modality this method includes the following steps:
A) A first step of incubation, in which the antigen suspension, liposomes or cells, are incubated with a drug that stabilizes its lipidic bilayers, this drug being used at a concentration of 0.1 up to 100 mM, the obtained mixture is incubated for 0.25 to 2 h at a temperature between 35 and 40° C.
These studies were carried out with a modification in the liposomal cytofluorometry method with liposomes made from egg-yolk phosphatidylcholine:phosphatidate (2:1 molar ratio) in Tris-NaCl buffer (10 mM, 1 mM) pH 7, containing 0.1 μmol of phosphatidate, and treated with 0.2 mM chlorpromazine to induce lipidic particles formation, as antigens.
Liposomal preparations were incubated for 30 min at room temperature and were used as antigens. The reaction of these stabilized liposomes with H308 monoclonal antibody was analyzed by the liposomal cytofluorometry method as was described in Example 2A, in a FACSCalibur Flow Cytometer equipped with a single 488 nm argon laser beam (Beckton Dickinson).
Relative size and/or liposomal aggregation were analyzed in the FSC channel and the granularity or liposomal bilayers complexity in the SSC channel. Analysis of 10,000 liposomes was made in a logarithmic mode with the following detectors: FSC in E00, with a detector compensation threshold of 52 V and SSC of 401 V (Baeza et al., op. cit., 1995). The obtained data were analyzed with the Cellquest program (Beckton Dickinson).

[4] = system: egg-yolk phosphatidylcholine:phosphatidate (2:1 molar ratio) liposomes; assay: Lipidic particles reversion in liposomes; settings: chlorpromazine 0.2 mM for 30 min before stabilizer drug
Description: (§1) Examples 7 and 7A were repeated using as antigens egg-yolk phosphatidylcholine:phosphatidate (2:1 molar ratio) liposomes, in Tris-NaCl buffer (10 mM, 1 mM) pH 7, and containing 0.1 μmol of phosphatidate, or Ag4 mouse myeloma cells. […] Stabilizer drugs were used at the concentrations used in Example 7A.

[5] = system: Ag4 mouse myeloma cells; assay: Stabilization of cellular membranes (cytofluorometry); type: cell-based; settings: chlorpromazine 0.2 mM plus stabilizer drug; for development of lipidic particles in Ag4 cellular membranes: 30 min
Description: The reaction of these stabilized Ag4 mouse myeloma cells with […] monoclonal antibody was analyzed by the cytofluorometry method in a FACSCalibur Flow Cytometer equipped with a single […] argon laser beam (Beckton Dickinson). Relative size and/or Ag4 mouse myeloma cells aggregation were analyzed in the FSC channel and the granularity or cellular membranes complexity in the SSC channel. Analysis of 10,000 […] mouse myeloma cells was made with the following detectors: FSC in […] in lineal mode with an amplifier gain of 2 V, with a detector compensation threshold of 52 V, and SSC of 250 V. The obtained data were analyzed with the Cellquest program (Beckton Dickinson).

[6] = system: BALB/c female mice; assay: Treatment of the pathology induced by H308 monoclonal antibody in mice; type: in vivo, mouse; settings: for therapeutically effective quantity: of body weight, BALB/c female mice given H308
Description: H308 monoclonal antibody was administered by intraperitoneal injection of 1 μg each week during two months to BALB/c female mice, and simultaneously the glycerolphosphorylcholine hapten was administered at 2.5 mg/Kg, of body weight, doses by intravenous injection each 24 hs, for 2-months.
Spermidine was administered, as chlorhydrate, in a dose of 1 mg/Kg, of body weight, by intraperitoneal injection each 24 hs, during two months.

[7] = system: Ag4 mouse myeloma cells; assay: Lipidic particles reversion in cells; type: cell-based; settings: chlorpromazine 0.2 mM for 30 min before stabilizer drug
Description: as §1

[8] = system: egg-yolk phosphatidylcholine:phosphatidate (2:1 molar ratio) liposomes; assay: Stabilization of liposomal membranes (liposomal cytofluorometry, SSC/FSC); settings: without chlorpromazine

immunized BALB/c female mice that produced anti-lipidic particles antibodies [1]: 50%
SMILES: CCN(CC)CCNC(=O)c1ccc(N)cc1 [procainamide]
pathology developed in BALB/c female mice [1]: development of a pathology similar to the human antiphospholipid syndrome secondary to systemic lupus erythematosus

SMILES: NC(COP(=O)(O)O)C(=O)O (stereo not drawn) [phosphorylserine]
inhibition of H308 monoclonal antibody reaction with lipidic particles in liposomes [2]: do not cause any inhibition

SMILES: C[N+](C)(C)CCOP(=O)(O)O [phosphorylcholine]
absorbance at 492 nm of H308 immunoreaction ([2]; 0.6 μmoles of hapten): 0.06 | inhibition in immunoreaction of H308 monoclonal antibody ([2]; 0.6 μmoles of hapten, with regard to reaction in absence of hapten): 82%

SMILES: NCCCCNCCCN [spermidine]
concentration effective in stabilizing lipidic bilayers [3]: 5 µM | lipidic particles formation and liposomal aggregation, simultaneous incubation with chlorpromazine [3]: there were not lipidic particles formation neither liposomal aggregation | reaction of stabilized liposomes with H308 monoclonal antibody [3]: do not react with H308 monoclonal antibody | reversion of lipidic particles and liposomal aggregation caused by chlorpromazine [4]: reverted | reaction of stabilized Ag4 cells with H308 monoclonal antibody [5]: do not react with the H308 monoclonal antibody | development of lipidic particles in Ag4 cellular membranes [5]: do not develop lipidic particles with chlorpromazine | development of mice pathology induced by H308 monoclonal antibody ([6]; as chlorhydrate, 1 mg/Kg intraperitoneal each 24 hs, two months): results similar to those described with chloroquine | therapeutically effective quantity [6]: 1 mg/kg | reversion of lipidic particles and cellular aggregation caused by chlorpromazine [7]: reverted | change in liposomal aggregation and liposomal bilayers complexity, stabilizer drug alone [8]: do not produce any change

SMILES: NCCOP(=O)(O)O [phosphorylethanolamine]
inhibition of H308 monoclonal antibody reaction with lipidic particles in liposomes [2]: do not cause any inhibition

SMILES: N[C@@H](COP(=O)(O)OCC(O)CO)C(=O)O (stereo partly drawn) [glycerolphosphorylserine]
inhibition of H308 monoclonal antibody reaction with lipidic particles in liposomes [2]: do not cause any inhibition

SMILES: CCN(CC)CCCC(C)Nc1ccnc2cc(Cl)ccc12 (stereo not drawn) [chloroquine]
concentration effective in stabilizing lipidic bilayers [3]: 0.1 µM | lipidic particles formation and liposomal aggregation, simultaneous incubation with chlorpromazine [3]: there were not lipidic particles formation neither liposomal aggregation | reaction of stabilized liposomes with H308 monoclonal antibody [3]: do not react with H308 monoclonal antibody | reversion of lipidic particles and liposomal aggregation caused by chlorpromazine [4]: reverted | reaction of stabilized Ag4 cells with H308 monoclonal antibody [5]: do not react with the H308 monoclonal antibody | development of lipidic particles in Ag4 cellular membranes [5]: do not develop lipidic particles with chlorpromazine | therapeutically effective quantity [6]: 2.5 mg/kg | reversion of lipidic particles and cellular aggregation caused by chlorpromazine [7]: reverted | change in liposomal aggregation and liposomal bilayers complexity, stabilizer drug alone [8]: do not produce any change

immunized BALB/c female mice that produced anti-lipidic particles antibodies [1]: 50%
SMILES: CN(C)CCCN1c2ccccc2Sc2ccc(Cl)cc21 [chlorpromazine]
increase in SSC and FSC values (lipidic particles and liposomal aggregation) ([3]; 0.2 mM): 100 fold | SSC values ([3]; graph B, FIG. 16, presence of lipidic particles): higher than 1000 units | pathology developed in BALB/c female mice [1]: development of a pathology similar to the human antiphospholipid syndrome secondary to systemic lupus erythematosus
